In patent publication US20090042820A1, “Tubulin Binding Anti Cancer Agents And Prodrugs Thereof” (Threshold Pharmaceuticals, Inc., priority 2004, published 2009):
Like-named read-outs stand apart in the source and are kept apart here.

Experiments:
[1] = tested on: H460 cells; assay: Alamar Blue antiproliferation assay, H460 cell line; assay type: cell-based, human; details: Homo sapiens
Description: (§1) To determine the effect of the compounds of the present invention on cell proliferation, the antiproliferative activity of these compounds was tested in a multi-well Alamar Blue based assay (at 2 h and 3 days). Cell growth in the presence and absence of the test compound as tabulated in Table 1 was compared, as measured by a fluorescence plate reader at excitation 550 nm and emission 590 nm (see Biosource International Inc., Tech Application Notes, Use of Alamar Blue in the measurement of Cell Viability and Toxicity, Determining IC50). H460 cells (ATCC HTB-177 ([…]), 4,000 cells/well/200 μl) and LNCap cells (ATCC CRL-1740, 6,000 cells/well/200 μl) were seeded in a 96 well plate in RPMI medium (Invitrogen Corporation, Carlsbad, Calif.). After 24 hours, these plates were divided into 3 groups—Control group, 2 h treatment group and 3 day treatment group.
(§2) In the 2 h treatment group, after 2 h the cells were rinsed to remove the test compound and incubated for 3 days, followed by staining with AlamarBlue. The cells in the 3-day treatment group were incubated for 3 days, followed by staining with AlamarBlue. In the Control group, AlamarBlue was added to the plate at (i) day 0 and (ii) day 3 and measured to establish the control reading. In all the groups, the capacity of the cells to proliferate was measured 6 hours after addition of AlamarBlue by a fluorescence plate reader at excitation 550 nm and emission 590 nm.

[2] = tested on: MES-SA; assay: Alamar Blue antiproliferation assay, MES-SA; assay type: cell-based; details: Homo sapiens, 72 h, 3 Day
[3] = tested on: MES-SA/DX5; assay: Alamar Blue antiproliferation assay, MES-SA/DX5; assay type: cell-based; details: Homo sapiens, 72 h; MES-SA/DX5, 3 Day
[4] = tested on: HT29; assay: Alamar Blue antiproliferation assay, HT29; assay type: cell-based; details: Homo sapiens, HT-29, 72 h; HT29, 3 Day
[5] = tested on: T47D; assay: Alamar Blue antiproliferation assay, T47D; assay type: cell-based; details: Homo sapiens, 72 h, 3 Day
[6] = tested on: H460 cells; assay: Cell cycle analysis; assay type: cell-based, human; details: 24 h
Description: H460 cells (2×10^5 cells/ml/well) were seeded in a 24 well plate. The culture media were removed after 24 h, the cells were trypsinized and centrifuged. […] The cells were centrifuged and the supernatant was discarded. The cell cycle staining reagent (Guava Technologies, Hayward, Calif., USA, 200 μl) was added to each well. The cells were shielded from light and incubated at room temperature for 30 min.

[7] = tested on: tubulin; assay: Tubulin polymerization inhibition (cell free tubulin fluorescence); assay type: biochemical; details: compared to untreated tubulin, read-out: IC50 (μM), concentration that reduced tubulin fluorescence by 50%
Description: A sample of cell free tubulin polymerizes and the sample's fluorescence emission increases. Inhibition of tubulin polymerization by a tubulin binding compounds of the present invention was measured by the dose dependence of cell free tubulin fluorescence.

[8] = Metabolic stability in mouse liver microsomes; assay type: in vitro ADME; details: 5 μM, 1 mg/mL protein, NADPH, 37° C.
Description: An in vitro assessment of metabolic stability of compounds was performed using commercially available mouse liver microsomes (MLM) containing cytochrome P450 enzymes (Cedra Corp, Austin, Tex.). A solutions (5 μM) of a compound and microsomes (1 mg/mL protein) was prepared. P450 enzymatic reactions were initiated by adding an NADPH solution. Enzymatic reactions were carried out in a thermostated shaking water bath kept at 37° C. Fifty μl of the reaction mixture was withdrawn immediately and 30 minutes after the addition of the NADPH solution and the proteins were precipitated with acetonitrile. The clear supernatant was analyzed by reversed phase LC-MS/MS (Applied Biosystems API-3000 with Hypersil-BDS C18 column and gradient elution), with internal standard area ratio quantification for the amount the compound remaining as shown in table 4.

[9] = Plasma stability; assay type: in vitro ADME; details: mouse plasma, 5 μM, 37° C.
Description: For an assessment of plasma stability of compounds, commercially available mouse plasma (Bioreclamation, Hicksville, N.Y.) was added to a DMSO solution of a compound, to a concentration of 5 μM. The reaction mixture (50 μl) was withdrawn immediately and after 30 minutes at 37° C., proteins were precipitated with acetonitrile. The clear supernatant was analyzed by reversed phase LC-MS/MS and the amount the compound remaining quantified as shown in table 4.

[10] = H460 xenograft mouse model; assay type: in vivo; details: female, mouse, in vivo; daily dose for five days, CB17/SCID mice; read-out: maximum tolerated dose
Description: (§3) Female CB17/SCID mice (purchased from Taconic, Oxnard, Calif.), 7-8 weeks of age, were allowed to acclimatize for at least three days, and handled under pathogen-free conditions. Human non-small cell lung cancer cell line […] was obtained from the American Type Culture Collection. The cell lines were cultured in RPMI 1640 media supplemented with 10% fetal bovine serum. Cells were maintained in a 37° C. incubator with 5% CO2. The H460 cells were harvested from culture and inoculated at 1×10^6 cells/animal in the […] subcutaneous space. […] Taxol was administered approximately 2-3 hours before that of compound 30.
(§4) The body weight of each mouse was recorded twice per week (FIG. 1). […] One animal in the treatment group was found dead on day 18, and two were found dead on day 22 in the combination group.
(§5) FIG. 2 graphically illustrates the mean tumor volume for each treatment group. Growth of each xenograft was monitored by externally measuring tumors in two dimensions using a digital caliper twice per week. Tumor volume (V) was determined by the following equation: V=(L×W^2)/2, where L is the length and W is the width of a xenograft. Tumor volumes were measured twice weekly. On day 11, the Treated/Control (T/C) ratio was 65% and 52% in the treatment and combination groups, respectively. At the final measurement (day 22), the T/C ratio for the treatment and combination groups respectively were 43% and 19%.

[11] = tested on: H460 xenograft; assay: H460 xenograft mouse model; assay type: in vivo; details: for Treated/Control (T/C) ratio, tumor volume: compound 30 5 mg/kg daily for five days from day 8
Description: as §3, §4, §5

[12] = tested on: cancer cell; assay: Cancer cell antiproliferation assay (cell line not stated); assay type: cell-based; details: summary statement; read-out: GI50 or IC50 in a cancer cell antiproliferation assay
Description: In one aspect, the present invention provides a compound of formula (I-VII) having a GI50, GI90, IC50, or IC50 of about 0.001 to about 1000 nM, about 0.01 to about 100 nm, about 0.1 to about 50 nM, and about 1 to about 10 nM in a cancer cell antiproliferation assay. In one embodiment, the present invention provides a compound of formula (I) having a GI50 or IC50 of about 0.01 to about 100 nm, about 0.1 to about 50 nm, and about 1 to about 10 nm in a cancer cell antiproliferation assay. In various embodiments, said antiproliferation assays employ cancer cell including but not limited to gastric, colon, breast, and non-small cell lung cancer. In various embodiments, the […] cancer cell used is MESSA or doxorubicin resistant MESSA/DX5 cell; the colon cancer cell is HT29 cell; the breast cancer cell is T47D cell; and the non-small cell lung cancer cell is H460 cell.
as §1, §2

COc1cc(C(=O)c2n[nH]c3c(C#CCO)c(OC)ccc23)cc(OC)c1OC [Compound 30]
GI50 ([1]; NCI-H460, 2 h treatment, then 3 days incubation, read-out: GI50 (nM) 2 Hour): 630 nM | GI50 ([1]; NCI-H460, 72 h, 3 day treatment, read-out: GI50 (nM) 3 Days): 10 nM | GI50 [2]: 0.3 nM | GI50 [3]: 1.6 nM | GI50 [4]: 1.9 nM | GI50 [5]: 2.5 nM | % G2/M ([6]; H460, 0.4 nM): 31% | % Go/G1 ([6]; H460, 0.4 nM): 46% | % S ([6]; H460, 0.4 nM): 14% | % G2/M ([6]; H460, 1.2 nM): 29% | % Go/G1 ([6]; H460, 1.2 nM): 48% | % S ([6]; H460, 1.2 nM): 15% | % G2/M ([6]; H460, 3.7 nM): 31% | % Go/G1 ([6]; H460, 3.7 nM): 46% | % S ([6]; H460, 3.7 nM): 14% | % G2/M ([6]; H460, 11.1 nM): 68% | % Go/G1 ([6]; H460, 11.1 nM): 14% | % S ([6]; H460, 11.1 nM): 9% | % G2/M ([6]; H460, 33.3 nM): 80% | % Go/G1 ([6]; H460, 33.3 nM): 7% | % S ([6]; H460, 33.3 nM): 7% | IC50 [7]: 3.9 µM | Metabolic stability (MLM, % remaining at 30 min) [8]: 101 ± 16% | Plasma stability (% remaining at 30 min) [9]: 104% | MTD at 5 days [10]: 5 to 20 mg/kg | toxicity at doses greater than 5 mg/kg ([11]; daily doses 20 and 50 mg/kg for five days, treatment and combination groups): toxic and caused lethality | Treated/Control (T/C) ratio, tumor volume ([11]; day 11): 65% | animals found dead ([11]; day 18, compound 30 5 mg/kg daily, ten per group): One | Treated/Control (T/C) ratio, tumor volume ([11]; day 22 (final measurement)): 43% | mean weight loss ([11]; day 22 from start of treatment on day 8, compound 30 5 mg/kg daily for five days): 8% | tumor volume as % of a control tumor volume ([11]; human cancer cell xenograft tumor bearing mice, summary statement): 5-70% | IC50 [12]: 1 to 50 nM
